Data: ChEMBL document CHEMBL1944605, “Amides of xanthurenic acid as zinc-dependent inhibitors of Lp-PLA(2)” (Bioorg Med Chem Lett, 2012)
pIC50: −log10 of the molar value.

Assays:
[1] = target: T1, Platelet-activating factor acetylhydrolase (Homo sapiens, UniProt Q13093); experiment: Inhibition of human plasma lipoprotein-associated phospholipase A2 using 2-thio-PAF as substrate preincubated for 20 mins measured 1 hr post substrate addition by spectrophotometric analysis
T1 sequence (Q13093 whole entry): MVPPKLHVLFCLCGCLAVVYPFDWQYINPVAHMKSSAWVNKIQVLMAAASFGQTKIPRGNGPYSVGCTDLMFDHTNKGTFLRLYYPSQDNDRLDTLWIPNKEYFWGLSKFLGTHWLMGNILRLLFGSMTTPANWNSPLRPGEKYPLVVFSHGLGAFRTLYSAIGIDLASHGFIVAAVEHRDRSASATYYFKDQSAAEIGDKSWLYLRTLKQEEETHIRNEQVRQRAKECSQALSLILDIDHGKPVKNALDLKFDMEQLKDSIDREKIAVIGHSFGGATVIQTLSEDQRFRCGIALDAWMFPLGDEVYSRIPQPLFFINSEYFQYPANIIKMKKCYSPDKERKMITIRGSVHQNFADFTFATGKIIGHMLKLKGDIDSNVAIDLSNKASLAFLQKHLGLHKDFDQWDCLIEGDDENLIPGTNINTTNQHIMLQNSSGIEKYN

[2] = target: T1, Platelet-activating factor acetylhydrolase; experiment: Inhibition of human plasma lipoprotein-associated phospholipase A2 using 2-thio-PAF as substrate preincubated for 20 mins measured 1 hr post substrate addition by spectrophotometric analysis

pIC50 [1]	pIC50 [2]	SMILES
< 4.00	< 4.00	O=C(Nc1ccccc1)c1ccc2cccc(O)c2n1
< 4.00	< 4.00	O=C(O)c1cc(O)c2cccc(O)c2n1 [XANTHURENATE]

SMILES	pIC50 [1]	pIC50 [2]
Oc1cccc2cccnc12 [OXYQUINOLINE]	< 4.00	< 4.00
